Patent US20250092345A1, “INTER ORGAN PLATFORM FOR MICROPHYSIOLOGICAL SYSTEM ON A CHIP” (THE TRUSTEES OF COLUMBIA UNIVERSITY IN THE CITY OF NEW YORK, priority 2020, published 2025)

What was measured:
cardiac muscle = assay: Cardiac beat frequency after drug injection into the reservoir of the InterOrgan platform; type: cell-based, human; details: 10 μM into reservoir at t=0; assessed at 24 and 72 hours
[1] = tested on: all tissues in the InterOrgan platform (heart, liver, bone, skin); assay: Doxorubicin-induced toxicity: cell viability, glucose consumption, mitochondrial activity of engineered tissues; type: cell-based, human; details: 30 μM Dox, 72 hours
Protocol: Metabolic Assays: Glucose, lactate, glutamate and glutamine were measured in parallel using the bioluminescent Glucose-Glo™ (Promega, cat. no. J6021), Lactate-Glo™ (Promega, cat. No. J5021), Glutamine/Glutamate-Glo™ (Promega, cat. no. J8021) and Glutamate-Glo™ (Promega, cat. no. J7021) assays according to the manufacturer's protocols.

engineered skin tissues = assay: Doxorubicin-induced toxicity: skin functional assays; type: cell-based, human; details: 30 μM Dox, both Isolated and InterOrgan cultures
Protocol: Skin functional assays: For drug-induced toxicity studies, electrical current was run through the tissues by placing electrodes on either side of the skin tissue and the change in resistance was subsequently measured and read as a function of the barrier. All tissues were analyzed using the same electrode holder setup to standardize the positions of electrodes with respect to the tissue. To analyze the transport of molecules through the skin barrier, Fluorescein (FITC, ThermoFisher, D3306) powder was added to the epidermis of skin tissues. After 3 hrs, 100 μl of supernatant from the dermal region below the skin tissue was sampled and assayed on a plate reader (BioTex SynergyHTX).

[2] = tested on: human engineered cardiac tissue; assay: Validation of engineered cardiac tissue by drugs with known cardiac effects (beat frequency); type: cell-based; details: doxorubicin 1 μM over 72 hours
Protocol: The cardiac tissue model was generated from iPS-derived cardiomyocytes and fibroblasts encapsulated in fibrin hydrogel, as in our previous studies. The tissue was formed between two elastic pillars causing cell elongation and alignment, and subjected to electrical stimulation to synchronously contract and work against the pillars.
Specifically, linsitinib was dissolved at a 10 mM concentration in DMSO (Corning) and mixed in with the respective cell medium at a […] concentration unless otherwise noted. Vehicle treatments involved just the addition of DMSO at identical volumes as a control. Tissues were randomly assigned to experimental groups. Medium was changed every day.
To measure the cardiac contractility online, we took contractility videos of the tissues that were analyzed using the native MATLAB code we previously developed. Tissue contractility was measured by tracking the change in tissue area as a function of time. […] Absolute differences in cell area from the baseline frame were then calculated to create a time course of cell area changes over time. The resulting time courses were analyzed using a native MATLAB (MATHWorks) automated peak finding algorithm to determine locations of maximum cell contractions in the time profiles. […] The rate of proarrhythmic events was calculated by the ratio of the number of proarrhythmic events over the total number of beats.

miRNAs in heart tissues = type: cell-based, human
Excerpt: We used the GeneChip™ miRNA 4.0 Array (ThermoFisher) to measure differential expression of miRNAs in heart tissues following Dox treatment.
Differential expressions of all other miRNAs were highly significant in the InterOrgan platform, based on Normalized Enrichment Scores (NES), showing activity consistent with published clinical results for 20 out of the 22 miRNAs (FIGS. 14A-14F).
miRNA was isolated using miRNeasy Mini Kit from (Qiagen, 217004). Samples were shipped on dry ice to Advanced BioMedical Laboratories and assayed using the miRNA 4.0 Genechip Array (ThermoFisher). Results were analyzed using the TAC 4.0 software (ThermoFisher). Additional Ingenuity Pathway Analysis was performed using the methodology described above.
To assess the activity of miRNAs, gene set enrichment analysis (GSEA) was performed of their targets, as determined by MultiMiR (release 3.11) and RBio-mirGS (update 0.2.12) biocoductor packages (in R) for genes that were differentially expressed after Dox treatment. Since miRNAs generally repress their targets, the sign of the normalized enrichment score was reversed to correctly report their change in activity. For instance, a positive target enrichment for miR-1273a's targets was reported as a negative NES (NES=−21.31) because it is consistent with its downregulation. […]

[3] = FITC absorption and diffusive transport in the integrated platform; type: physicochemical
Protocol: Fluorescein isothiocyanate (FITC, 10 mM in DMSO; Sigma Aldrich) was circulated for the integrated platform to determine potential hydrophobic small molecule absorption, given its physical and chemical properties. FITC was added at a concentration of 10 µM to 8 mL of 1:1 bone tumor/cardiac mixed media and introduced into the platform. The control was the FITC-containing media in a standard 24-multiwell plate (Corning). Aliquots from the reservoir, bone tumor, and cardiac tissue chambers were taken at 12, 24, 48 and 72 hours and measured for fluorescent signal using a spectrophotometer (Biotek).
Measurements of FITC concentrations were used to estimate the spread of linsitinib within the platform via diffusive circulating transport. Four independent platforms were filled with 8 mL of 1:1 mixed media each, after which 10 µM of FITC was injected into the reservoir. The platforms were connected to the peristaltic pumps run at 100 rpm to generate physiologically relevant fluid flow rate and shear stress. Aliquots were taken from the reservoir, bone and cardiac chambers at 0, 2, 4, 6, and 12 hours post injection, and assayed for fluorescence signal on a spectrophotometer (Biotek).

endothelial barrier = assay: Endothelial barrier permeability under flow shear (ECs and supporting MSCs on mesh inserts); type: cell-based, human

## CN(CCOc1ccc(NS(C)(=O)=O)cc1)CCc1ccc(NS(C)(=O)=O)cc1 [dofetilide]
Cardiac muscle
  beat rate of cardiac muscle: decreased

## COc1cccc2c1C(=O)c1c(O)c3c(c(O)c1C2=O)C[C@@](O)(C(=O)CO)C[C@@H]3O[C@H]1C[C@H](N)[C@H](O)[C@H](C)O1 [doxorubicin]
[1]
  cell viability: significantly decreased
  glucose consumption: significantly decreased
  mitochondrial activity: significantly decreased
Engineered skin tissues
  diffusional permeability of skin: increased
  electrical resistance of skin: decreased
[2]
  beat frequency: initially increased, and then decreased following prolonged exposure
miRNAs in heart tissues
  miR-1273a fold change (FC): −30.6

## CNC[C@H](O)c1ccc(O)c(O)c1 [epinephrine]
Cardiac muscle
  beat rate of cardiac muscle: increased the beat rate in a time-dependent manner

## Fluorescein isothiocyanate [FITC]
[3]; 10 μM circulated for 72 hours, compared to multi-well plates
  absorption by the platform: without any measurable absorption
[3]; 10 μM injected into reservoir
  time to equilibrium across both models: approximately 6 hours
  time to uniform concentration in all areas of the platform: ≤ 12 h

## thrombin
Endothelial barrier
  barrier permeability in response to thrombin: physiologic increase in barrier permeability
